Source: PMC9181982, “Biphenyl Ether Analogs Containing Pomalidomide as Small-Molecule Inhibitors of the Programmed Cell Death-1/Programmed Cell Death-Ligand 1 Interaction” (Molecules, 2022)
“Also recorded” adds a separate entry of the source.

Target: T1, PD-L1 in MDA-MB-231 cells (Homo sapiens, UniProt Q9NZQ7)
T1 construct: host or cells: MDA-MB-231
Assay: Western blot of PD-L1 expression in MDA-MB-231 cells
Assay type: cell-based
Details: MDA-MB-231 cells treated for 6 or 24 h
Protocol: The cell lysates were prepared with a RIPA buffer (Sigma-Aldrich) containing Protease Inhibitor Cocktail (Sigma-Aldrich, St. Louis, MO, USA) and separated by 12% SDS-PAGE (TGX™ FastCast™ Acrylamide Kit, Bio-Rad, Hercules, CA, USA). The proteins were transferred to a PVDF membrane (Merck Millipore, Burlington, MA, USA) using a Mini Trans-Blot® Cell system (Bio-Rad, Hercules, CA, USA). The membranes were incubated with 4% (m/v) bovine serum albumin (BioShop, Burlington, Ontario, Canada) in a TBS buffer containing 0.1% (v/v) Nonidet P-40 (BioShop, Burlington, Ontario, Canada) at RT for 1 h. Then, the membranes were incubated with a specific primary antibody at 4 °C overnight. Following three washes in TBS-N, a secondary horseradish peroxidase (HRP)-conjugated antibody was applied for 1 h at RT. […]
Figure 2 Bioactivity of the indicated compounds. (A,B) The activity was monitored with a cell-based immune checkpoint blockade (ICB) assay. […] The cells were co-cultured for 6 h and the luminescence signal was measured following the addition of the Bio-Glo substrate. The graphs show fold induction calculated versus either DMSO-treated (for small molecules) or untreated (for durvalumab) control (ctrl) cells. […]

T1 sequence (Q9NZQ7 19-290): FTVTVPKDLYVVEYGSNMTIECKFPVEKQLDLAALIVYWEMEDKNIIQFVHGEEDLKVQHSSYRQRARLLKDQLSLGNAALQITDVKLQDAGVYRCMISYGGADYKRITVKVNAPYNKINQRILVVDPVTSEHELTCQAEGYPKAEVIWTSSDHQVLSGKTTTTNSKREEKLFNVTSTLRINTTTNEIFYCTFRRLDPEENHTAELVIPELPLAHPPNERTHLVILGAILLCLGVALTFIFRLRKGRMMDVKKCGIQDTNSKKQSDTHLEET

| Compound | Downregulation of PD-L1 expression (Western blot) |
| --- | --- |
| COc1nc(OCc2cccc(-c3ccccc3)c2C)ccc1CNCC1CCN(CC(=O)Nc2cccc3c2C(=O)N(C2CCC(=O)NC2=O)C3=O)CC1 (centres unmarked) [compound 4, N-(2-(2,6-dioxopiperidin-3-yl)-1,3-dioxoisoindolin-4-yl)-2-(4-((((2-methoxy-6-((2-methyl-[1,1′-biphenyl]-3-yl)methoxy)pyridin-3-yl)methyl)amino)methyl)piperidin-1-yl)acetamide] | not related to the downregulation of PD-L1 expression; also recorded: unrelated to the downregulation of PD-L1 expression |
| COc1nc(OCc2cccc(-c3ccccc3)c2C)ccc1CNCCCNc1cccc2c1C(=O)N(C1CCC(=O)NC1=O)C2=O (centres unmarked) [compound 5, 2-(2,6-dioxopiperidin-3-yl)-4-((3-(((2-methoxy-6-((2-methyl-[1,1′-biphenyl]-3-yl)methoxy)pyridin-3-yl)methyl)amino)propyl)amino)isoindoline-1,3-dione] | not related to the downregulation of PD-L1 expression; also recorded: unrelated to the downregulation of PD-L1 expression |
